Source: paper PMC7897990, “TriTOX: A novel Trichomonas vaginalis assay platform for high-throughput screening of compound libraries” (International Journal for Parasitology: Drugs and Drug …, 2021)
Entries after “also recorded” stand apart in the source; their conditions may differ. Like-named read-outs stand apart in the source and are kept apart here. Values belong to the molecule of their own block, whether it stands above or below them.

What was measured:
T. foetus = assay: Medium-throughput (MTS) confirmatory dose-response growth assay, T. foetus; type: cell-based, Tritrichomonas foetus; details: 48 h; for IC50: 96-well, 10,000 cells/mL in 50 μL, mean ± SEM, >10 = no appreciable activity at highest dose; for activity against T. foetus in MTS, in words: 10-point dilution series, 96-well
Method: (§1) For microtiter plate assays, trichomonads were grown in anaerobic conditions within GasPak EZ anaerobe pouches with fresh anaerobic sachets. Working reagent of the chromogen was phenol red (Sigma) in a 1% w/v working solution in phosphate buffered saline (PBS), which was filter sterilised. Chromogen absorbance was monitored at 570 nm on an absorbance microplate reader after plates were allowed to equilibrate in atmospheric conditions at room temperature for at least 5 min.
(§2) After absorbances were measured, data were processed as followed unless indicated otherwise in the text. […] Prism 8 (GraphPad) was used to plot dose-response curves and calculate IC50 values, using a least squares regression, log[inhibitor] vs normalised response (variable slope, four parameters) model. Where replicate plates were used, data for dose-response curves were plotted as the mean±SD of these replicates.
(§3) A selection of 17 compounds assayed in the high-throughput screen (HTS) for T. vaginalis which were available through BioAustralis were obtained for validation of inhibitory in/activity in our optimised medium-throughput format. For this, a 10-point serial dilution was used for drug-susceptibility testing to calculate IC50 values of ‘hit’ compounds. Mtz was used as a positive control. Each screen was performed with 3 technical replicates and a minimum of 2 biological replicates in both T. vaginalis and T. foetus using assay conditions of seeds of 10,000 cells/mL in 50 μL, with absorbance measured at 48 h. Dose response curves and IC50 were calculated for each compound as described above in Section 2.3.

[1] = test system: Trichomonas vaginalis G3 trophozoites; details: for T. vaginalis HTS results / T. vaginalis HTS result in words: 384-well, 25 μL, 10,000 cells/mL, 48 h, biological duplicates; for T. vaginalis HTS results: 10% chromogen, single concentration; for T. vaginalis HTS result in words: hit = >50% inhibition; for T.vaginalis_Absorbance_Rep1: replicate 1, raw absorbance; for T.vaginalis_Absorbance_Rep2: replicate 2, raw absorbance
T. vaginalis = assay: Medium-throughput (MTS) confirmatory dose-response growth assay, T. vaginalis; type: cell-based, Trichomonas vaginalis; details: for activity against T. vaginalis in MTS, in words: 10-point dilution series, 96-well; for activity against T. vaginalis in MTS, in words / IC50: 48 h; for IC50: 96-well, 10,000 cells/mL in 50 μL, mean ± SEM, >10 = no appreciable activity at highest dose; for species-specificity T. vaginalis vs T. foetus in MTS: comparison of MTS IC50 in both species
Method: as §1, §2, §3

[2] = test system: nontumorigenic neonatal foreskin fibroblast (NFF) cell line
[3] = test system: Trichomonas vaginalis G3 trophozoites; assay: microbe, parasite or virus in culture; details: 48 h
[4] = test system: Bacillus subtilis (ATCC 6633); type: cell-based; details: 5 μg/mL
[5] = test system: Staphylococcus aureus (ATCC 25923); type: cell-based; details: 5 μg/mL
[6] = NFF fibroblast screen at 5 µg/mL, A = active, I = inactive
[7] = read-out: T.vaginalis_%inb_Rep1
[8] = read-out: T.vaginalis_%inb_Rep2
[9] = HTS, parasite screen at 1 µg/mL
[10] = HTS, parasite screen at 1 µg/mL, replicate 1
[11] = HTS, parasite screen at 1 µg/mL, replicate 2

SMILES: O=[N+]([O-])c1ncc[nH]1 [Azomycin, azomycin]
- IC50 (T. foetus; Tritrichomonas foetus): 8.6 ± 4.3 µM
- T. vaginalis HTS results [1]: I
- T. vaginalis HTS result in words [1]: inactive
- activity against T. vaginalis in MTS, in words (T. vaginalis): confirmed active; also recorded: inconsistent activity
- IC50 (T. vaginalis; Trichomonas vaginalis): 9.7 ± 5.5 µM

SMILES: N#Cc1cn([C@@H]2O[C@H](CO)[C@@H](O)[C@H]2O)c2ncnc(N)c12 [Toyocamycin, toyocamycin, reference compound]
- IC50 (T. foetus; Tritrichomonas foetus): 2.4 ± 0.7 µM
- NFF_Activity [2, 6]: I (otherwise these were reported as inactive (I))
- T. vaginalis HTS result in words [1]: supported the anti-trichomonal activity
- inhibition of growth at 1 µg/mL [3, 7]: 69.9%
- inhibition of growth at 1 µg/mL [3, 8]: 77.5%
- activity against T. vaginalis in MTS, in words (T. vaginalis): true positives
- IC50 (T. vaginalis; Trichomonas vaginalis): 0.3 ± 0.01 µM
- species-specificity T. vaginalis vs T. foetus in MTS (T. vaginalis): remained active against both T. vaginalis and T. foetus

SMILES: CO[C@@H]1[C@H](OC(=O)/C=C/C=C/C=C/C=C/C(=O)O)CC[C@]2(CO2)[C@H]1[C@@]1(C)O[C@@H]1CC=C(C)C [Fumagillin, fumagillin, reference compound]
- activity against T. foetus in MTS, in words (T. foetus): near nanomolar potency
- IC50 (T. foetus; Tritrichomonas foetus): 0.18 ± 0.03 µM
- cytotoxic activity (NFF) [2]: no anti-bacterial nor cytotoxic activity
- T.vaginalis_Absorbance_Rep1 [1, 9]: 1.617
- T.vaginalis_Absorbance_Rep2 [1, 9]: 1.25
- antibacterial activity against Bacillus subtilis [4]: no anti-bacterial
- inhibition of growth at 1 µg/mL [3, 7]: 48.9%
- inhibition of growth at 1 µg/mL [3, 8]: 45.5%
- activity against T. vaginalis in MTS, in words (T. vaginalis): near nanomolar potency
- activity against T. vaginalis in MTS, in words (T. vaginalis; listed as fumagillin): true positives
- IC50 (T. vaginalis; Trichomonas vaginalis): 0.26 ± 0.11 µM
- antibacterial activity against Staphylococcus aureus [5]: no anti-bacterial

SMILES: CN1C(=O)[C@]23CC4=CC=C[C@H](O)[C@H]4N2C(=O)[C@@]1(CO)SS3 [Gliotoxin, gliotoxin, reference compound]
- IC50 (T. foetus; Tritrichomonas foetus): > 10 µM
- NFF_Activity ([2]; NFF_NS1 screen at 5 µg/mL): A (active (A) compounds having >25% inhibitory activity)
- T.vaginalis_Absorbance_Rep1 [1, 9]: 2.103
- T.vaginalis_Absorbance_Rep2 [1, 9]: 1.862
- inhibition of growth at 1 µg/mL [3, 7]: 71%
- inhibition of growth at 1 µg/mL [3, 8]: 78.7%
- activity against T. vaginalis in MTS, in words (T. vaginalis): no activity
- IC50 (T. vaginalis; Trichomonas vaginalis): > 10 µM

SMILES: Nc1ncnc2c1ccn2[C@@H]1O[C@H](CO)[C@@H](O)[C@H]1O [Tubercidin, tubercidin]
- IC50 (T. foetus; Tritrichomonas foetus): > 10 µM
- NFF_Activity [2, 6]: A (active (A) compounds having >25% inhibitory activity)
- inhibition of growth at 1 µg/mL [3, 7]: 63.8%
- inhibition of growth at 1 µg/mL [3, 8]: 76%
- activity against T. vaginalis in MTS, in words (T. vaginalis): true positives
- IC50 (T. vaginalis; Trichomonas vaginalis): 2.4 ± 0.1 µM
- species-specificity T. vaginalis vs T. foetus in MTS (T. vaginalis): selective activity against T. vaginalis but not T. foetus

SMILES: Cn1ncnc2c(=O)n(C)c(=O)nc1-2 [Toxoflavin, toxoflavin, reference compound]
- IC50 (T. foetus): 4.1 ± 0.9 µM
- NFF_Activity [2, 6]: A (active (A) compounds having >25% inhibitory activity)
- T. vaginalis HTS result in words [1]: partial hits
- T.vaginalis_%inb_Rep1 [1, 10]: 5.72%
- T.vaginalis_%inb_Rep2 [1, 11]: 100.00%
- activity against T. vaginalis in MTS, in words (T. vaginalis): confirmed active
- IC50 (T. vaginalis): 3.1 ± 1.7 µM
- species-specificity T. vaginalis vs T. foetus in MTS (T. vaginalis): remained active against both T. vaginalis and T. foetus

- IC50 (T. vaginalis): 2.7 ± 0.9 µM
SMILES: COC(=O)c1ccc(CCCCCCCCCCc2ccc(C(=O)OC)nc2)cn1 [Penicolinate A, penicolinate A]
- activity against T. foetus in MTS, in words (T. foetus): weak activity
- T.vaginalis_%inb_Rep1 ([1]; HTS replicate 1, parasite screen 1 µg/mL): 78.85%
- T.vaginalis_%inb_Rep2 ([1]; HTS replicate 2, parasite screen 1 µg/mL): 85.50%
- activity against T. vaginalis in MTS, in words (T. vaginalis): true positives
- species-specificity T. vaginalis vs T. foetus in MTS (T. vaginalis): selective activity against T. vaginalis but not T. foetus

SMILES: CCC(=O)CCCCC[C@@H]1NC(=O)[C@H]2CCCCN2C(=O)[C@H]([C@@H](C)CC)NC(=O)[C@H](Cc2cn(OC)c3ccccc23)NC1=O [Apicidin, apicidin]
- activity against T. foetus in MTS, in words (T. foetus): micromolar IC50 values
- IC50 (T. foetus; Tritrichomonas foetus): 1.9 ± 0.2 µM
- T. vaginalis HTS results [1]: I
- T. vaginalis HTS result in words [1]: inactive in both T. vaginalis HTS replicates
- activity against T. vaginalis in MTS, in words (T. vaginalis): confirmed active; also recorded: micromolar IC50 values
- IC50 (T. vaginalis; Trichomonas vaginalis): 1.2 ± 0.1 µM

SMILES: COc1ccc2cc1Oc1cc(ccc1O)[C@H](O)[C@]13SS[C@@]4(C(=O)N1C)[C@H](O)C1=COC=C[C@H](OC2=O)[C@H]1N4C3=O [Emestrin, emestrin, reference compound]
- activity against T. foetus in MTS, in words (T. foetus): inconsistent between biological replicates
- IC50 (T. foetus): 7.3 ± 3.3 µM
- NFF_Activity ([2]; NFF_NS1 screen at 5 µg/mL): A (active (A) compounds having >25% inhibitory activity)
- T. vaginalis HTS result in words [1]: partial hits
- T.vaginalis_%inb_Rep1 [1, 10]: 12.22%
- T.vaginalis_Absorbance_Rep1 [1, 9]: 0.943
- T.vaginalis_%inb_Rep2 [1, 11]: 63.12%
- T.vaginalis_Absorbance_Rep2 [1, 9]: 1.619
- activity against T. vaginalis in MTS, in words (T. vaginalis): inactive
- IC50 (T. vaginalis): > 10 µM

- IC50 (T. foetus): > 10 µM
- IC50 (T. vaginalis): > 10 µM
SMILES: CC(C=CC(=O)NOC1OC(CO)C(O)C(O)C1O)=CC(C)C(=O)c1ccc(N(C)C)cc1 (stereo not drawn) [Trichostatin C, trichostatin C, reference compound]
- T. vaginalis HTS results [1]: I
- T.vaginalis_%inb_Rep1 [1, 10]: 10.28%
- T.vaginalis_%inb_Rep2 [1, 11]: 10.24%
- activity against T. vaginalis in MTS, in words (T. vaginalis): true negatives

SMILES: CC(/C=C/C(=O)NO)=C\[C@@H](C)C(=O)c1ccc(N(C)C)cc1 [Trichostatin A, trichostatin A, reference compound]
- IC50 (T. foetus): 0.048 ± 0.006 µM
- NFF_Activity [2, 6]: I (otherwise these were reported as inactive (I))
- T. vaginalis HTS result in words [1]: supported the anti-trichomonal activity
- T.vaginalis_%inb_Rep1 [1, 10]: 71.95%
- T.vaginalis_%inb_Rep2 [1, 11]: 67.89%
- activity against T. vaginalis in MTS, in words (T. vaginalis; listed as TSA): true positives
- IC50 (T. vaginalis): 0.22 ± 0.06 µM

SMILES: CC(C=CC1OC(=O)C=CC1C)=CC(C)CC=CC(C)=CC(C)C(=O)C(C)C(O)C(C)CC(C)=CC(=O)O (stereo not drawn) [Leptomycin A, leptomycin A]
- IC50 (T. foetus): > 10 µM
- T. vaginalis HTS results [1]: I
- activity against T. vaginalis in MTS, in words (T. vaginalis): true negatives
- IC50 (T. vaginalis): > 10 µM
